From patent publication US10300026B2, “Use of dihydroxyacetone in preparation of anti-cancer medicaments” (priority 2015, dated 2019)
Like-named read-outs stand apart in the source and are kept apart here.

Assays:
Type in all cases: cell-based
[1] = tested on: A375; assay: CellTiter-Glo cell viability, A375 (human malignant melanoma cell)
Experimental: (§1) 15 g of the commercially available 1,3-dihydroxyacetone in the solid powder form was added into 100 mL of 5% glucose (infusion bottle), then filled into 100 bottles.
(§2) After digesting the cells and counting (counting suspended cells directly), the cells were diluted to 1.25×10^5 cells/ml, inoculated into a 384-well plate (5000 cells/well) with 40 μl per well, centrifuged at 1500 rpm for 1 min, placed into the incubator and incubated overnight.
(§3) The medicaments were diluted in gradient with a 5% glucose solution to 5×, respectively. Each well was dosed with 10 μl medicament, with 4 wells (n=4) for each concentration. The cell viability was measured with Luminescence Cell Viability Assay kit after incubating for 72 hours in an incubator.
(§4) CellTiter-Glo reagent was added into each well, the volume of which is the same as that of medium. It was shaked on a shaker for 5 min, centrifuged at 1500 rpm for 1 min, and incubated in the dark at room temperature for 15 min. Then the chemiluminescence was detected with BMG PHERAstar.
(§5) The cell viability was calculated by using the following formula: Cell viability (Viability %)=100%×(LUMsample to be measured−LUMblank)/(LUMsolvent control−LUMblank)
(§6) The curve of Log[concentration] versus cell viability was fitted using Prism 6 to calculate IC50 of sample for each cell line.

[2] = tested on: RPMI8226; assay: CellTiter-Glo cell viability, RPMI8226 (multiple myeloma)
Experimental: as §1, §2, §3, §4, §5, §6

[3] = tested on: SGC7901; assay: CellTiter-Glo cell viability, SGC7901 (human gastric adenocarcinoma cell)
Experimental: as §1, §2, §3, §4, §5, §6

[4] = tested on: S180; assay: CellTiter-Glo cell viability, S180 (S180 sarcoma cells)
Experimental: as §1, §2, §3, §4, §5, §6

[5] = tested on: C-33A; assay: CellTiter-Glo cell viability, C-33A (human cervical cancer cell)
Experimental: as §1, §2, §3, §4, §5, §6

[6] = tested on: SH-SY5Y; assay: CellTiter-Glo cell viability, SH-SY5Y (human neuroblastoma cell)
Experimental: as §1, §2, §3, §4, §5, §6

[7] = tested on: Calu-6; assay: CellTiter-Glo cell viability, Calu-6 (human degenerative cancer cell)
Experimental: as §1, §2, §3, §4, §5, §6

[8] = tested on: WIL2-S; assay: CellTiter-Glo cell viability, WIL2-S (human B lymphocyte)
Experimental: as §1, §2, §3, §4, §5, §6

[9] = tested on: SW480; assay: CellTiter-Glo cell viability, SW480 (human colorectal cancer cell)
Experimental: as §1, §2, §3, §4, §5, §6

[10] = tested on: HCCLM3; assay: CellTiter-Glo cell viability, HCCLM3 (human high metastatic hepatoma cell)
Experimental: as §1, §2, §3, §4, §5, §6

[11] = tested on: HepG2; assay: CellTiter-Glo cell viability, HepG2 (human hepatoma cell line)
Experimental: as §1, §2, §3, §4, §5, §6

[12] = tested on: HCT116; assay: CellTiter-Glo cell viability, HCT116 (human colon cancer cell)
Experimental: as §1, §2, §3, §4, §5, §6

[13] = tested on: A2780; assay: CellTiter-Glo cell viability, A2780 (human ovarian cancer cell line)
Experimental: as §1, §2, §3, §4, §5, §6

[14] = tested on: HT29; assay: CellTiter-Glo cell viability, HT29 (human colon cancer cell line)
Experimental: as §1, §2, §3, §4, §5, §6

[15] = tested on: A549; assay: CellTiter-Glo cell viability, A549 (human non-small cell lung cancer cell)
Experimental: as §1, §2, §3, §4, §5, §6

[16] = tested on: HL-60; assay: CellTiter-Glo cell viability, HL-60 (human leukemic cell line)
Experimental: as §1, §2, §3, §4, §5, §6

[17] = tested on: U87MG; assay: CellTiter-Glo cell viability, U87MG (human spongioblastoma cell line)
Experimental: as §1, §2, §3, §4, §5, §6

[18] = tested on: PANC-1; assay: CellTiter-Glo cell viability, PANC-1 (human pancreatic cancer cell line)
Experimental: as §1, §2, §3, §4, §5, §6

[19] = tested on: A431; assay: CellTiter-Glo cell viability, A431 (human cutaneous squamous cell carcinoma)
Experimental: as §1, §2, §3, §4, §5, §6

[20] = tested on: Caki-1; assay: CellTiter-Glo cell viability, Caki-1 (human renal clear cell carcinoma skin metastatic cell)
Experimental: as §1, §2, §3, §4, §5, §6

[21] = tested on: TT; assay: CellTiter-Glo cell viability, TT (human thyroid cancer cell); conditions: 72 hours
Experimental: as §1, §2, §3, §4, §5, §6

[22] = tested on: A673; assay: CellTiter-Glo cell viability, A673 (human rhabdomyoma cell)
Experimental: as §1, §2, §3, §4, §5, §6

[23] = tested on: FaDu; assay: CellTiter-Glo cell viability, FaDu (human pharyngeal squamous cell)
Experimental: as §1, §2, §3, §4, §5, §6

[24] = tested on: TF1-α; assay: CellTiter-Glo cell viability, TF1-α (human erythroleukemia cell)
Experimental: as §1, §2, §3, §4, §5, §6

[25] = tested on: BEL-7402; assay: CellTiter-Glo cell viability, BEL-7402 (human hepatoma cell line)
Experimental: as §1, §2, §3, §4, §5, §6

[26] = tested on: SMMC-7721; assay: CellTiter-Glo cell viability, SMMC-7721 (human hepatoma cell line)
Experimental: as §1, §2, §3, §4, §5, §6

[27] = tested on: HCC1937; assay: CellTiter-Glo cell viability, HCC1937 (human breast cancer cell)
Experimental: as §1, §2, §3, §4, §5, §6

[28] = Homo sapiens, 72 h, read-out: IC50 calculated based on the concentration of dihydroxyacetone

N.N.[Cl][Pt][Cl] [DDP, cis-diammine platinum dichloride, reference compound]
IC50 ([1]; A375, 72 hours, n=4, read-out: IC50): 8.25 µM
IC50 ([2]; RPMI8226, 72 hours, n=4, read-out: IC50): 5.79 µM
IC50 ([3]; SGC7901, 72 hours, n=4, read-out: IC50): 24 µM
IC50 ([4]; S180, 72 hours, n=4, read-out: IC50): 0.26 µM
IC50 ([5]; C-33A, 72 hours, n=4, read-out: IC50): 2.85 µM
IC50 ([6]; 72 hours, n=4, read-out: IC50): 2.89 µM
IC50 ([7]; Calu-6, 72 hours, n=4, read-out: IC50): 220 µM
IC50 ([8]; WIL2-S, 72 hours, n=4, read-out: IC50): 9.89 µM
IC50 ([9]; SW480, 72 hours, n=4, read-out: IC50): 16.7 µM
IC50 ([10]; HCCLM3, 72 hours, n=4, read-out: IC50): 183 µM
IC50 ([11]; HepG2, 72 hours, n=4, read-out: IC50): 13.9 µM
IC50 ([12]; HCT116, 72 hours, n=4, read-out: IC50): 22.9 µM
IC50 ([13]; A2780, 72 hours, n=4, read-out: IC50): 32.2 µM
IC50 ([14]; HT29, 72 hours, n=4, read-out: IC50): 48.6 µM
IC50 ([15]; A549, 72 hours, n=4, read-out: IC50): 4.1 µM
IC50 ([16]; HL-60, 72 hours, n=4, read-out: IC50): 1.82 µM
IC50 ([17]; U87MG, 72 hours, n=4, read-out: IC50): 24 µM
IC50 ([18]; PANC-1, 72 hours, n=4, read-out: IC50): 22.4 µM
IC50 ([19]; A431, 72 hours, n=4, read-out: IC50): 9.29 µM
IC50 ([20]; Caki-1, 72 hours, n=4, read-out: IC50): 13.1 µM
IC50 ([21]; n=4, read-out: IC50): 9.72 µM
IC50 ([22]; A673, 72 hours, n=4, read-out: IC50): 1.11 µM
IC50 ([23]; 72 hours, n=4, read-out: IC50): 11.5 µM
IC50 ([24]; TF1-α, 72 hours, n=4, read-out: IC50): 3.76 µM
IC50 ([25]; BEL-7402, 72 hours, n=4, read-out: IC50): 5.37 µM
IC50 ([26]; SMMC-7721, 72 hours, n=4, read-out: IC50): 6.19 µM
IC50 ([27]; HCC1937, 72 hours, n=4, read-out: IC50): 14.8 µM

O=C(CO)CO [Dihydroxyacetone, 1,3-dihydroxyacetone]
IC50 ([1]; Homo sapiens, A-375, 72 h, read-out: IC50 calculated based on the concentration of dihydroxyacetone): 6180 µM
IC50 ([2]; Homo sapiens, RPMI-8226, 72 h, read-out: IC50 calculated based on the concentration of dihydroxyacetone): 1810 µM
IC50 ([3]; Homo sapiens, SGC-7901, 72 h, read-out: IC50 calculated based on the concentration of dihydroxyacetone): 3740 µM
IC50 ([4]; S-180, 72 h, read-out: IC50 calculated based on the concentration of dihydroxyacetone): 950 µM
IC50 ([5]; Homo sapiens, C-33-A, 72 h, read-out: IC50 calculated based on the concentration of dihydroxyacetone): 5090 µM
IC50 [6, 28]: 1810 µM
IC50 ([7]; Homo sapiens, Calu-6, 72 h, read-out: IC50 calculated based on the concentration of dihydroxyacetone): 11000 µM
IC50 ([8]; Homo sapiens, Lymphocyte, 72 h, read-out: IC50 calculated based on the concentration of dihydroxyacetone): 12100 µM
IC50 ([9]; Homo sapiens, SW480, 72 h, read-out: IC50 calculated based on the concentration of dihydroxyacetone): 7950 µM
IC50 ([10]; Homo sapiens, HCCLM3, 72 h, read-out: IC50 calculated based on the concentration of dihydroxyacetone): 5480 µM
IC50 ([11]; Homo sapiens, HepG2, 72 h, read-out: IC50 calculated based on the concentration of dihydroxyacetone): 12100 µM
IC50 ([12]; Homo sapiens, HCT-116, 72 h, read-out: IC50 calculated based on the concentration of dihydroxyacetone): 6820 µM
IC50 ([13]; Homo sapiens, A2780, 72 h, read-out: IC50 calculated based on the concentration of dihydroxyacetone): 10600 µM
IC50 ([14]; Homo sapiens, HT-29, 72 h, read-out: IC50 calculated based on the concentration of dihydroxyacetone): 4370 µM
IC50 ([15]; Homo sapiens, A549, 72 h, read-out: IC50 calculated based on the concentration of dihydroxyacetone): 4390 µM
IC50 ([16]; Homo sapiens, HL-60, 72 h, read-out: IC50 calculated based on the concentration of dihydroxyacetone): 2780 µM
IC50 ([17]; Homo sapiens, U-87 MG, 72 h, read-out: IC50 calculated based on the concentration of dihydroxyacetone): 9210 µM
IC50 ([18]; Homo sapiens, PANC-1, 72 h, read-out: IC50 calculated based on the concentration of dihydroxyacetone): 7360 µM
IC50 ([19]; Homo sapiens, A-431, 72 h, read-out: IC50 calculated based on the concentration of dihydroxyacetone): 5640 µM
IC50 ([20]; Homo sapiens, CAKI-1, 72 h, read-out: IC50 calculated based on the concentration of dihydroxyacetone): 10000 µM
IC50 ([21]; Homo sapiens, n=4, read-out: IC50 calculated based on the concentration of dihydroxyacetone): 3620 µM
IC50 ([22]; Homo sapiens, A673, 72 h, read-out: IC50 calculated based on the concentration of dihydroxyacetone): 3770 µM
IC50 [23, 28]: 9420 µM
IC50 ([24]; Homo sapiens, TF-1, 72 h, read-out: IC50 calculated based on the concentration of dihydroxyacetone): 4890 µM
IC50 ([25]; Homo sapiens, Bel-7402, 72 h, read-out: IC50 calculated based on the concentration of dihydroxyacetone): 6820 µM
IC50 ([26]; Homo sapiens, SMMC-7721, 72 h, read-out: IC50 calculated based on the concentration of dihydroxyacetone): 5090 µM
IC50 ([27]; Homo sapiens, HCC1937, 72 h, read-out: IC50 calculated based on the concentration of dihydroxyacetone): 10200 µM
